{"source": "patent US20240108737A1", "about": "“ANTI-INFECTIVE BICYCLIC PEPTIDE LIGANDS” (priority 2021, published 2024)", "key": {"SARS-CoV-2 [1]": {"test_system": "SARS-CoV-2", "conditions": "3 h"}, "SARS-CoV-2 [2]": {"test_system": "SARS-CoV-2", "conditions": "hamster, in vivo"}, "[3]": {"test_system": "SARS-CoV-2 pseudotyped HIV-1 virions", "conditions": "72 h"}, "[4]": {"test_system": "SARS-CoV-2 pseudotyped HIV-1 virions, B.1.1.7 (Alpha)"}, "[5]": {"test_system": "SARS-CoV-2 pseudotyped HIV-1 virions, B.1.351 (Beta)"}, "[6]": {"test_system": "SARS-CoV-2 pseudotyped HIV-1 virions, P.1 (Gamma)"}, "[7]": {"test_system": "SARS-CoV-2 pseudotyped HIV-1 virions, B.1.617.2 (Delta)"}, "[8]": {"test_system": "SARS-CoV-2 pseudotyped HIV-1 virions, B.1.427 (California)"}}, "note": "*1 amine or outer side, *2 acyl side, *3 side chain or, on linkers, in order; H or OH if unused. Where a SMILES comes first, the peptide text is derived from it. Bridges are numbered along the chain shown (N, C = ends). Roman numbers before positions name the chains, in order. [ ]: non-standard residue; d: D form. X1 = O=C(CCOCCOCCOCCOCCOCCOCCOCCOCCOCCOCCOCCOCCOCCOCCOCCOCCOCCOCCOCCOCCOCCOCCOCCOCCn1cc(CCC(=O)[*:2])nn1)[*:1]; X3 = O=C(CCc1cn(CCOCCOCCOCCOCCOCCOCCOCCOCCOCCOCCOCCOCCOCCOCCOCCOCCOCCOCCOCCOCCOCCOCCOCCOCCC(=O)[*:2])nn1)[*:1]; TATB = O=C(C[*:1])N1CN(C(=O)C[*:2])CN(C(=O)C[*:3])C1; X2 = C(c1nc(C[*:2])nc(C[*:3])n1)[*:1]; hArg = N=C(N)NCCCC[C@H](N)C(=O)O; tBuAla = CC(C)(C)C[C@H](N)C(=O)O; Agb = N=C(N)NCC[C@H](N)C(=O)O"}
{"smiles": "CC[C@H](C)[C@@H]1NC(=O)[C@H](CCSC)NC(=O)[C@@H]2CSCC(=O)N3CN(CN(C3)C(=O)CSC[C@@H](C(=O)N[C@@H](CCCCNC(=O)CCOCCOCCOCCOCCOCCOCCOCCOCCOCCOCCOCCOCCOCCOCCOCCOCCOCCOCCOCCOCCOCCOCCOCCOCCn3cc(CCC(=O)NCCCC[C@H](NC(=O)[C@@H]4CSCc5nc6nc(n5)CSC[C@H](NC(C)=O)C(=O)N5CCC[C@H]5C(=O)N[C@@H](Cc5ccc(O)cc5)C(=O)N[C@@H](C(C)C)C(=O)N[C@@H](C)C(=O)NCC(=O)N[C@@H](CCNC(=N)N)C(=O)N[C@H](C)C(=O)N[C@@H]([C@@H](C)O)C(=O)N[C@@H](CSC6)C(=O)N[C@@H](CC(C)C)C(=O)N[C@@H](CC(C)(C)C)C(=O)N4)C(N)=O)nn3)C(N)=O)NC(=O)[C@H](C)NC1=O)C(=O)CSC[C@H](NC(C)=O)C(=O)N[C@@H]([C@@H](C)CC)C(=O)N1CCC[C@H]1C(=O)N[C@@H](CC(C)C)C(=O)N[C@@H](CC(=O)O)C(=O)N[C@@H](Cc1c[nH]c3ccccc13)C(=O)N[C@@H]([C@@H](C)O)C(=O)N2", "note": "[BCY18656]", "values": [{"measurement": "IC50", "setting": "SARS-CoV-2 [1]", "value": 0.314, "unit": "nM"}, {"measurement": "viral load of SARS-CoV-2", "setting": "SARS-CoV-2 [2]", "value": "reduces the viral load"}]}
{"smiles": "CC(=O)N[C@H]1CSCc2nc3nc(n2)CSC[C@H](NC(=O)[C@H]([C@@H](C)O)NC(=O)[C@@H](C)NC(=O)[C@H](CCNC(=N)N)NC(=O)CNC(=O)[C@H](C)NC(=O)[C@H](C(C)C)NC(=O)[C@H](Cc2ccc(O)cc2)NC(=O)[C@@H]2CCCN2C1=O)C(=O)N[C@@H](CC(C)C)C(=O)N[C@@H](CC(C)(C)C)C(=O)N[C@H](C(=O)N[C@@H](CCCCNC(=O)CCOCCOCCOCCOCCOCCOCCOCCOCCOCCOCCOCCOCCOCCOCCOCCOCCOCCOCCOCCOCCOCCOCCOCCOCCn1cc(CCC(=O)NCCCC[C@H](NC(=O)[C@@H]2CSCc4nc5nc(n4)CSC[C@H](NC(C)=O)C(=O)N4CCC[C@H]4C(=O)N[C@@H](Cc4ccc(O)cc4)C(=O)N[C@@H](C(C)C)C(=O)N[C@@H](C)C(=O)NCC(=O)N[C@@H](CCNC(=N)N)C(=O)N[C@H](C)C(=O)N[C@@H]([C@@H](C)O)C(=O)N[C@@H](CSC5)C(=O)N[C@@H](CC(C)C)C(=O)N[C@@H](CC(C)(C)C)C(=O)N2)C(N)=O)nn1)C(N)=O)CSC3", "note": "[BCY17196] (I: Ac-CPYVAG[Agb][dA]TCL[tBuAla]CK-NH2 / II: Ac-CPYVAG[Agb][dA]TCL[tBuAla]CK-NH2; linker I:1-I:10-I:13, II:1-II:10-II:13 via X2; linker I:14-II:14 via X1)", "values": [{"measurement": "IC50", "setting": "[3]", "value": 15300, "unit": "nM"}]}
{"smiles": "CC(=O)N[C@H]1CSCC(=O)N2CN3CN(C2)C(=O)CSC[C@H](NC(=O)[C@H](C(C)C)NC(=O)[C@@H]2CCCN2C(=O)[C@H](CC(N)=O)NC(=O)[C@H](CC(=O)O)NC(=O)[C@@H]2CCCN2C(=O)[C@H](CC(N)=O)NC(=O)[C@H](C)NC1=O)C(=O)N[C@@H](CCCNC(=N)N)C(=O)N[C@@H](Cc1ccccc1)C(=O)N[C@@H](Cc1ccc(O)cc1)C(=O)N[C@H](C(=O)N[C@@H](CCCCNC(=O)CCOCCOCCOCCOCCOCCOCCOCCOCCOCCOCCOCCOCCOCCOCCOCCOCCOCCOCCOCCOCCOCCOCCOCCOCCn1cc(CCC(=O)NCCCC[C@H](NC(=O)[C@@H]2CSCc4nc5nc(n4)CSC[C@H](NC(C)=O)C(=O)N4CCC[C@H]4C(=O)N[C@@H](Cc4ccc(O)cc4)C(=O)N[C@@H](C(C)C)C(=O)N[C@@H](C)C(=O)NCC(=O)N[C@@H](CCCCNC(=N)N)C(=O)N[C@H](C)C(=O)N[C@@H]([C@@H](C)O)C(=O)N[C@@H](CSC5)C(=O)N[C@@H](CC(C)C)C(=O)N[C@@H](CC(C)(C)C)C(=O)N2)C(N)=O)nn1)C(N)=O)CSCC3=O", "note": "[BCY18786] (I: Ac-CANPDNPVCRFYCK-NH2 / II: Ac-CPYVAG[hArg][dA]TCL[tBuAla]CK-NH2; linker I:1-I:9-I:13 via TATB; linker I:14-II:14 via X1; linker II:1-II:10-II:13 via X2)", "values": [{"measurement": "IC50", "setting": "[3]", "value": 0.2, "unit": "nM"}, {"measurement": "IC50", "setting": "[4]", "value": 6, "unit": "nM"}, {"measurement": "IC50", "setting": "[5]", "value": 272, "unit": "nM"}, {"measurement": "IC50", "setting": "[6]", "value": 140, "unit": "nM"}, {"measurement": "IC50", "setting": "[7]", "value": 437, "unit": "nM"}, {"measurement": "IC50", "setting": "[8]", "value": 93, "unit": "nM"}, {"measurement": "IC50", "setting": "SARS-CoV-2 [1]", "value": 246, "unit": "nM"}]}
{"smiles": "CC(=O)N[C@@H](C)C(=O)N[C@H]1CSCC(=O)N2CN3CN(C2)C(=O)CSC[C@H](NC(=O)[C@H](C(C)C)NC(=O)[C@@H]2CCCN2C(=O)[C@H](CC(N)=O)NC(=O)[C@H](CC(=O)O)NC(=O)[C@@H]2CCCN2C(=O)[C@H](CO)NC(=O)[C@H](C)NC1=O)C(=O)N[C@@H](CCCNC(=N)N)C(=O)N[C@@H](Cc1ccccc1)C(=O)N[C@@H](Cc1ccc(O)cc1)C(=O)N[C@H](C(=O)N[C@@H](C)C(=O)N[C@@H](CCCCNC(=O)CCc1cn(CCOCCOCCOCCOCCOCCOCCOCCOCCOCCOCCOCCOCCOCCOCCOCCOCCOCCOCCOCCOCCOCCOCCOCCOCCC(=O)NCCCC[C@H](NC(=O)[C@@H]2CSCc4nc5nc(n4)CSC[C@H](NC(C)=O)C(=O)N4CCC[C@H]4C(=O)N[C@@H](Cc4ccc(O)cc4)C(=O)N[C@@H](C(C)C)C(=O)N[C@@H](C)C(=O)NCC(=O)N[C@@H](CCNC(=N)N)C(=O)N[C@H](C)C(=O)N[C@@H]([C@@H](C)O)C(=O)N[C@@H](CSC5)C(=O)N[C@@H](CC(C)C)C(=O)N[C@@H](CC(C)(C)C)C(=O)N2)C(N)=O)nn1)C(N)=O)CSCC3=O", "note": "[BCY17191] (I: Ac-ACASPDNPVCRFYCAK-NH2 / II: Ac-CPYVAG[Agb][dA]TCL[tBuAla]CK-NH2; linker I:2-I:10-I:14 via TATB; linker I:16-II:14 via X3; linker II:1-II:10-II:13 via X2)", "values": [{"measurement": "IC50", "setting": "[3]", "value": 10.6, "unit": "nM"}]}
